Measured values: US20110021619A1, “EXTERNAL PREPARATION FOR SKIN CONTAINING FLAVANONE DERIVATIVE” (priority 2006, published 2011)

Columns and labels:
[1] = system: Normal human fibroblasts; assay: Toxicity of farrerol on fibroblasts, MTT assay (WST-8); type: cell-based; settings: 24, 48 and 72 hours after addition, any of the concentrations considered
Procedure: 1. Fibroblasts grown to 80% confluency were dispersed with 0.05% Trypsin/EDTA. The dispersant was seeded on 96 wells/plate at a concentration of 3×10^3 cells/well. 2. […] 3. […] 4. Absorbance was measured at a measurement wavelength of 450 nm and a reference wavelength of 650 nm.

[2] = system: Normal human fibroblasts; assay: Wound-healing model (punched three-dimensional collagen gel), behavior of fibroblasts; type: cell-based; settings: 10^−6 ml/ml-DMEM farrerol, after 24 hours, vs farrerol-free group
From the text: 1) The culture of fibroblasts obtained by Protocol 4 of Example 1 and the collagen medium solution were mixed together at a ratio of 1:9 (volume) and then suspension-cultured in a 10%-FBS medium for 1 week.
2) When the size of a collagen gel was reduced from one at the time of being prepared by the addition of the collagen medium solution to a size of about ⅕ to 1/10, the center portion of the gel was punched out by a disposable biopsy punch with a diameter of 3 mm.
3) A 6-well plate was prepared and 15 μl of the collagen solution was then dropped on the center of the well. Subsequently, the punched three-dimensional collagen gel was mounted thereon and incubated for 10 minutes (37° C., 5% CO2).
4) When the dropped collagen was solidified and the three-dimensional collagen gel was attached to the bottom of the well, 10% FBS-DMEM, 0.1% heparin/10% FBS-DMEM, and 1.0% heparin/10% FBS-DMEM were added in a volume of 3 ml/well.

[3] = system: NHDF; assay: Building of collagen fiber bundle in collagen gel with heparin, SEM observation; type: cell-based, human; settings: 1% heparin at final, 5 days incubation, FIG. 3
Procedure: A collagen solution was prepared by mixture of 0.5% type-I collagen: 5×DMEM: 200 mM HEPES: 2.2% NaHCO3: 0.1 N NaOH: FBS: water at a ratio of 4:4:2:2:1:2:3 (performed while cooling).
A lower-layer collagen solution was prepared by mixing collagen solution with water at a ratio of 9 to 1.
The lower-layer collagen solution was dispensed into the respective wells of a 48-well plate in a volume of 100 μl/well.
The collagen solution was mixed with the cell suspension at a ratio of 9 to 1 (volume) and then dispensed into the respective wells in a volume of 300 μl/well.
The addition of 1.8% Heparin/10% FBS-DMEM was performed in a volume of 500 μl/well (1% Heparin/well at final).
Incubation was carried out in the CO2 incubator (5 days).
A sample for SEM observation was obtained.

[4] = system: Normal human fibroblasts; assay: Model of defective dermal tissue with wound (punched collagen gel), Example 6; type: cell-based; settings: FIG. 4
Procedure: The procedures will be described below. The results are represented in FIG. 4.
1) Normal human fibroblasts grown to 80% confluency were dispersed with 0.05% Trypsin/EDTA. The fibroblasts were seeded at a cell density of 3×10^5 cells/25 cm^2.
3) A collagen gel was prepared by adding a collagen medium solution to the culture obtained by culturing under each of the conditions in a manner similar to Example 2. The prepared collagen gel was then suspension-cultured for 1 week in the same medium as that of the culture condition of (2).
4) When the size of a collagen gel was reduced from one at the time of being prepared by the addition of the collagen medium solution to a size of about ⅕ to 1/10, the center portion of the gel was punched out in a donut form by a disposable biopsy punch with a diameter of 3 mm. As a result, a “wound model” was prepared.
5) A 6-well plate was prepared and 5 μl of collagen was then dropped on the center portion of the well. Subsequently, the collagen gel of the wound model was mounted thereon and incubated at 37° C. for 15 minutes.
6) When the dropped collagen was solidified and the gel was attached to the bottom of the well, 3 ml of the medium with the same condition as that of (3) was added, followed by culturing as a “model of defective dermal tissue with wound”. Subsequently, the process of closing up the wound area of the collagen gel was visually observed.

[5] = system: Normal human epidermal keratinocytes; assay: Cell proliferation effect of farrerol on keratinocytes (direct evaluation, cell count); type: cell-based; settings: FIG. 7
Procedure: 3) After 24 hours, 48 hours, and 72 hours from the sample addition, the cells were dispersed with 0.05% Trypsin/EDTA and the number thereof was then counted by a blood cell counter. By the way, in Experiment 1, the evaluation for WST-8 was used as an indicator of the number of cells. Since such a method is provided for indirect evaluation of the number of cells by acting on […] in mitochondria, the present study directly count the number of cells.

[6] = system: epidermal keratinocytes and fibroblasts; assay: Influence on fibroblasts through epidermal keratinocytes, amount of procollagen produced (PIP EIA); type: cell-based, human
Procedure: The method is based on one described in Eming SA et al., Hum. Gene. Ther., 9 (4), 529-39 (1998).
DAY 1: The cells are seeded on a 24-well plate at a cell density of 3×10^4 cells/well. […] DAY 7: The supernatant of the culture is collected.
DAY 3: The cells are seeded on a 24-well plate at a cell density of 2.5×10^4 cells/well. DAY 7: The plate is washed with PBS and the culture supernatant (900 μl) of the epidermal keratinocytes is then added, followed by culturing for 48 hours. DAY 9: The plate is washed with PBS and serum-free DMEM and the medium is then replaced with 500 μl of serum-free DMEM, followed by culturing for 2 hours. The supernatant of the culture is collected and the amount of procollagen in the centrifuged supernatant (15000 rpm, 5 sec.) was then measured depending on the method described below. […]
4) A standard curve was formed by plotting absorbance values at a wavelength of […] while the absorbance of the medium was set to zero as a reference. Then, the PIP concentration was read out from the corresponding absorbance of the test substance.

[7] = system: Normal human fibroblasts; assay: Screening with wound model (punched collagen gel), Example 11; type: cell-based
Procedure: The fractions containing the single ingredients obtained as described above are provided as test substances and the effect of each test substance to construct collagen is then evaluated to screen the substance with a wound-healing effect. The specific procedures will be described later.
Using a “wound model” provided with a defect area formed by punching a collagen gel containing animal fibroblasts, the degree of filling or reduction of the defect area in the presence of a test substance will be observed. The procedures are as follows.
1) Normal human fibroblasts grown to 80% confluency in preculture were dispersed with 0.05% Trypsin/EDTA. The fibroblasts were then seeded on a plate at a cell density of 3×10^5 cells/25 cm^2 (1×10^4 cells/cm^2).
3) A collagen gel was prepared by adding a collagen medium solution to the obtained culture in a manner similar to Example 3. The fibroblasts in the collagen gel were cultured using the medium used in (2). The concentration of the test substance in the medium corresponded to the concentration of the medium of (2).
4) After culturing for 1 week, the size of a collagen gel was reduced from one at the time of being prepared by the addition of the collagen medium solution to a size of about ⅕ to 1/10. Subsequently, the center portion of the collagen gel was punched out in a donut form by a disposable biopsy punch with a diameter of 3 mm. As a result, a “wound model” was prepared.
5) A 6-well plate was prepared and 5 μl of the collagen solution was then dropped on the center portion of the well. Subsequently, the collagen gel of the wound model was mounted thereon and incubated at 37° C. for 15 minutes, allowing the collagen gel to be attached on the bottom of the well.
6) Subsequently, 3 ml of the same medium as that of (2) was added to each of the wells and the fibroblasts in the above-mentioned collagen gel was then cultured for 7 days. During the culture, the process of closing up the wound area of the collagen gel was visually observed.

[8] = system: Normal human epidermal keratinocytes
Procedure: 1) Normal human epidermal keratinocytes grown to 80% confluency were dispersed with 0.05% Trypsin/EDTA. The dispersant was seeded on 96 wells/plate at a concentration of 3×10^3 cells/well and 6×10^3 cells/well.
4) Absorbance (OD value) was measured at a measurement wavelength of 450 nm and a reference wavelength of 650 nm.

SMILES: Cc1c(O)c(C)c2c(c1O)C(=O)CC(c1ccc(O)cc1)O2 (centres unmarked) [farrerol]
- cytotoxicity [1]: Significant cytotoxicity could not be confirmed
- movement of fibroblasts from the wound area ([2]; 0.1% heparin/10% FBS-DMEM and 1.0% heparin/10% FBS-DMEM): no difference in cell movement
- movement of fibroblasts from the wound area ([2]; unsupplemented 10% FBS-DMEM, FIG. 2): longer movement distance of fibroblasts and a more active cellular movement
- building of a collagen fiber bundle [3]: prevents an inhibitory effect of heparin on the building of a collagen fiber bundle
- reduction of punched hole size ([4]; final concentration of farrerol 10^−5 M): promoted clearly
- reduction of punched hole size ([4]; final concentration of farrerol 10^−6 M): promoted clearly
- promotion of reduction of punched hole size ([4]; final concentration of farrerol 10^−7 M): unclear
- cell shape [5]: no change in cell shape
- amount of procollagen produced ([6]; another system: farrerol added at the time of culturing fibroblasts, then keratinocyte culture supernatant added): did not show a large change in amount of procollagen produced
- amount of procollagen produced ([6]; fibroblasts cultured 48 hours with supernatant of keratinocytes treated with farrerol 10^−6, 10^−7, 10^−8 M, FIG. 8): increased significantly depending on the concentration of farrerol
- degree of filling or reduction of the defect area ([7]; compared with the rest of the seven single-ingredient fractions of Hypericum erectum extract): highest degree of filling or reduction of the defect area
- concentration exerting a wound-healing promoting effect ([7]; effective concentration read from defect area reduction): at least 10^−6 M
- reduction of the punch hole (defect area) ([7]; final concentration of farrerol 10^−5 M, FIG. 9): distinctly promoted
- reduction of the punch hole (defect area) ([7]; final concentration of farrerol 10^−6 M, FIG. 9): distinctly promoted
- promotion of reduction of the punch hole (defect area) ([7]; final concentration of farrerol 10^−7 M, FIG. 9): obscure
- OD value (450 nm) ([8]; dependence on concentration of farrerol, FIG. 5): increased depending on the concentration of farrerol
- OD value, reproducibility ([8]; doubled number of seeded cells, 6×10^3 cells/well): almost the similar result could be obtained
